We go through 47 compounds from patent US20020086895A1, “Methods of treating fungal infections” (priority 1985, published 2002).

Test [1] relates to C. albicans. Nature of the test: Antifungal screen of matrix-synthesis aurones in 96-well plates, C. albicans. The format is cell-based, Candida albicans. As to the method:
(§1) Thirty-eight 96-well plates were prepared with the above samples and tested against both C. albicans and A. fumigatus at either 8 μg/ml or 12.5 μg/ml. Plates with high activity were retested at the same concentration to confirm activity.
(§2) These compounds have formulae where W′ is OH, V is 3′,4′-(1,1-dimethylpropyloxy) to form a dihydropyran series, and X is selected from 3,4-dimethoxyphenyl, 4-t-butylphenyl, 2(prop-2-enyloxy)phenyl, 3-phenoxyphenyl, 3-ethoxy-4-hydroxyphenyl, 6-cyclohexenyl, and norborn-4-yl.

In test [2] the test system is A. fumigatus. The test can be described thus: Antifungal screen of matrix-synthesis aurones in 96-well plates, A. fumigatus. Type of test: cell-based, Aspergillus fumigatus. As to the method: as §1, §2

`C=CCOc1ccccc1C=C1Oc2cc(O)c(CC=C(C)C)c(O)c2C1=O`: in test [1] (@12.5 μg/ml), the CA percent inhibition was found to be 59%. This compound came in with an AF percent inhibition in test [2] (@12.5 μg/ml) of 40%.
As for `CC(C)=CCc1c(O)cc2c(c1O)C(=O)C(=Cc1ccc(Oc3ccccc3)cc1)O2`, the AF percent inhibition result in test [2] (@12.5 μg/ml) is “CA 0% AF 0% @12.5 μg/ml”.
Consider `CC(C)=CCc1c(O)cc2c(c1O)C(=O)C(=Cc1cccc(O)c1O)O2`, for which, in test [1] (@12.5 μg/ml), the CA percent inhibition amounted to 94%. This compound displayed an AF percent inhibition in test [2] (@12.5 μg/ml) of 31%.
For the compound `CC(C)=CCc1c(O)cc2c(c1O)C(=O)C(=Cc1ccc(O)c(O)c1O)O2`, the CA percent inhibition in test [1] (@12.5 μg/ml) turned out to be 89%. For the same compound, the AF percent inhibition in test [2] (@12.5 μg/ml) was 0%.
Turning to `C=CCOc1ccccc1C=C1Oc2cc(O)cc(O)c2C1=O`, the CA percent inhibition in test [1] (@12.5 μg/ml) came to 0%. In test [2] (@12.5 μg/ml), this compound yielded an AF percent inhibition of 43%.
The like results for `O=C1C(=Cc2ccc(O)c(O)c2)Oc2cc(O)cc(O)c21` were, in that order, 95% and 36%.
The like results for `O=C1C(=Cc2ccc(Oc3ccccc3)cc2)Oc2cc(O)cc(O)c21` were, in that order, 57% and 48%.
The like results for `O=C1C(=Cc2cccc(O)c2O)Oc2cc(O)cc(O)c21` were, in that order, 79% and 27%.
Turning to `C=CCOc1ccccc1C=C1Oc2cc3c(c(O)c2C1=O)CCC(C)(C)O3`, the CA percent inhibition in test [1] (@8 μg/ml) is given as 67%. This compound also gave an AF percent inhibition in test [2] (@8 μg/ml) of 94%.
The like results for `CC1(C)CCc2c(cc3c(c2O)C(=O)C(=Cc2ccc(O)c(O)c2)O3)O1` were, in that order, 87% and 0%.
`CC1(C)CCc2c(cc3c(c2O)C(=O)C(=Cc2ccc(Oc4ccccc4)cc2)O3)O1` had a CA percent inhibition in test [1] (@8 μg/ml) of 80%. Moreover, the AF percent inhibition in test [2] (@8 μg/ml) amounted to 76%.
Compound `CC1(C)CCc2c(cc3c(c2O)C(=O)C(=Cc2cccc(O)c2O)O3)O1` showed a CA percent inhibition in test [1] (@8 μg/ml) of 96%. Besides, in test [2] (@8 μg/ml), the AF percent inhibition is given as 52%.
Regarding `CC1(C)CCc2c(cc3c(c2O)C(=O)C(=Cc2ccc(O)c(O)c2O)O3)O1`, the CA percent inhibition in test [1] (@8 μg/ml) was determined as 0%. In test [2] (@8 μg/ml), this compound gave an AF percent inhibition of 69%.
Take `C=CCOc1ccccc1C=C1Oc2cc(O)c(CC=C)c(O)c2C1=O`: the CA percent inhibition in test [1] (@8 μg/ml) came out at 53%. In test [2] (@8 μg/ml), this compound came in with an AF percent inhibition of 96%.
The matching figures for `C=CCc1c(O)cc2c(c1O)C(=O)C(=Cc1ccc(O)c(O)c1)O2`: “CA 0% AF 0% @8 μg/ml” and “CA 0% AF 0% @8 μg/ml”.
The matching figures for `C=CCc1c(O)cc2c(c1O)C(=O)C(=Cc1ccc(Oc3ccccc3)cc1)O2`: 52% and 68%.
The like results for `C=CCc1c(O)cc2c(c1O)C(=O)C(=Cc1cccc(O)c1O)O2` were, in that order, 45% and 0%.
Compound `C=CCc1c(O)cc2c(c1O)C(=O)C(=Cc1ccc(O)c(O)c1O)O2` gave a CA percent inhibition in test [1] (@8 μg/ml) of 69%. For the same compound, in test [2] (@8 μg/ml), the AF percent inhibition worked out at 35%.
As to `CCOc1ccc(C=C2Oc3cc(O)cc(O)c3C2=O)cc1OC`, in test [2] (@12.5 μg/ml), the AF percent inhibition result is “CA 0% AF 0% @12.5 μg/ml”.
On to `CCOc1ccccc1C=C1Oc2cc(O)cc(O)c2C1=O`, for which, in test [2] (@12.5 μg/ml), the AF percent inhibition result is given as “CA 0% AF 0% @12.5 μg/ml”.
The same measure, in the same setting: the value for `COc1ccccc1C=C1Oc2cc(O)cc(O)c2C1=O` was “CA 0% AF 0% @12.5 μg/ml”.
Consider `CC1(C)CCc2c(cc3c(c2O)C(=O)C(=Cc2cc(C(C)(C)C)c(O)c(C(C)(C)C)c2)O3)O1`, for which the CA percent inhibition in test [1] (@8 μg/ml) worked out at 69%. Further, the AF percent inhibition in test [2] (@8 μg/ml) stood at 68%.
Take `CC1(C)CCc2c(cc3c(c2O)C(=O)C(=Cc2ccc(F)cc2F)O3)O1`: the CA percent inhibition in test [1] (@8 μg/ml) came out at 0%. Besides, the AF percent inhibition in test [2] (@8 μg/ml) came out at 94%.
As for `CCOc1ccc(C=C2Oc3cc4c(c(O)c3C2=O)CCC(C)(C)O4)cc1OC`, in test [1] (@8 μg/ml), the CA percent inhibition is given as 58%. The AF percent inhibition in test [2] (@8 μg/ml) was 67%.
Regarding `CCOc1ccccc1C=C1Oc2cc3c(c(O)c2C1=O)CCC(C)(C)O3`, the CA percent inhibition in test [1] (@8 μg/ml) is 80%. Moreover, in test [2] (@8 μg/ml), the AF percent inhibition is 71%.
The matching figures for `COc1ccccc1C=C1Oc2cc3c(c(O)c2C1=O)CCC(C)(C)O3`: 76% and 70%.
The matching figures for `C=CCc1c(O)cc2c(c1O)C(=O)C(=Cc1cc(C(C)(C)C)c(O)c(C(C)(C)C)c1)O2`: 49% and 60%.
Regarding `C=CCc1c(O)cc2c(c1O)C(=O)C(=Cc1ccc(F)cc1F)O2`, in test [1] (@8 μg/ml), the CA percent inhibition was determined as 53%. The AF percent inhibition in test [2] (@8 μg/ml) stood at 96%.
The like results for `C=CCc1c(O)cc2c(c1O)C(=O)C(=Cc1ccc(OCC)c(OC)c1)O2` were, in that order, 65% and 69%.
Turning to `C=CCc1c(O)cc2c(c1O)C(=O)C(=Cc1ccccc1OCC)O2`, the CA percent inhibition in test [1] (@8 μg/ml) is recorded as 22%. This compound also yielded an AF percent inhibition in test [2] (@8 μg/ml) of 52%.
The like results for `C=CCc1c(O)cc2c(c1O)C(=O)C(=Cc1ccccc1OC)O2` were, in that order, 20% and 62%.
Consider `Cc1cccc(C)c1C=C1Oc2cc(O)cc(O)c2C1=O`, for which the AF percent inhibition result in test [2] (@12.5 μg/ml) was “CA 0% AF 0% @12.5 μg/ml”.
On the same count and under the same terms, the value for `Cc1ccccc1C=C1Oc2cc(O)cc(O)c2C1=O` was “CA 0% AF 0% @12.5 μg/ml”.
With `Cc1ccc(C=C2Oc3cc(O)cc(O)c3C2=O)cc1`, in test [2] (@12.5 μg/ml), the AF percent inhibition result was “CA 0% AF 0% @12.5 μg/ml”.
On the same count and under the same terms, as for `CCc1ccc(C=C2Oc3cc(O)cc(O)c3C2=O)cc1`, the entry is “CA 0% AF 0% @12.5 μg/ml”.
`Cc1cccc(C)c1C=C1Oc2cc3c(c(O)c2C1=O)CCC(C)(C)O3` came in with a CA percent inhibition in test [1] (@8 μg/ml) of 82%. Also, the AF percent inhibition in test [2] (@8 μg/ml) is given as 97%.
The like results for `Cc1ccccc1C=C1Oc2cc3c(c(O)c2C1=O)CCC(C)(C)O3` were, in that order, 13% and 34%.
In test [1] (@8 μg/ml), `Cc1ccc(C=C2Oc3cc4c(c(O)c3C2=O)CCC(C)(C)O4)cc1` yielded a CA percent inhibition of 58%. The compound also gave an AF percent inhibition in test [2] (@8 μg/ml) of 93%.
The like results for `CCc1ccc(C=C2Oc3cc4c(c(O)c3C2=O)CCC(C)(C)O4)cc1` were, in that order, 73% and 68%.
`Cc1cc(C)c(C=C2Oc3cc4c(c(O)c3C2=O)CCC(C)(C)O4)c(C)c1` gave a CA percent inhibition in test [1] (@8 μg/ml) of 0%. The AF percent inhibition in test [2] (@8 μg/ml) is recorded as 28%.
The like results for `Cc1cc(C)cc(C=C2Oc3cc4c(c(O)c3C2=O)CCC(C)(C)O4)c1` were, in that order, “CA 0% AF” and “#11% @8 μg/ml”.
As for `C=CCc1c(O)cc2c(c1O)C(=O)C(=Cc1c(C)cccc1C)O2`, the CA percent inhibition in test [1] (@8 μg/ml) is recorded as 7%. The same compound returned an AF percent inhibition in test [2] (@8 μg/ml) of 49%.
The like results for `C=CCc1c(O)cc2c(c1O)C(=O)C(=Cc1ccccc1C)O2` were, in that order, 4% and 11%.
The like results for `C=CCc1c(O)cc2c(c1O)C(=O)C(=Cc1ccc(C)cc1)O2` were, in that order, 10% and 47%.
Compound `C=CCc1c(O)cc2c(c1O)C(=O)C(=Cc1ccc(CC)cc1)O2` registered a CA percent inhibition in test [1] (@8 μg/ml) of 16%. This compound displayed an AF percent inhibition in test [2] (@8 μg/ml) of 47%.
For `C=CCc1c(O)cc2c(c1O)C(=O)C(=Cc1c(C)cc(C)cc1C)O2`, the CA percent inhibition in test [1] (@8 μg/ml) was determined as 16%. Moreover, in test [2] (@8 μg/ml), the AF percent inhibition was determined as 7%.
The matching figures for `C=CCc1c(O)cc2c(c1O)C(=O)C(=Cc1cc(C)cc(C)c1)O2`: “CA 42% AF” and “#81% @8 μg/ml”.
